Values of other authors, collected in US20090274673A1, “COMPOSITION FOR TOPICAL TREATMENT OF ACNE” (priority 2008, published 2009).

How the values were obtained:
HIV = conditions: virus incubated with zinc acetate
Saccharomyces cerevisiae = conditions: against Saccharomyces cerevisiae
Candida albicans = conditions: against Candida albicans (a yeast-like fungus)
[1] = test system: Staphylococcus epidermidis; conditions: against Staphylococcus epidermidis
[2] = test system: hyper-permeable strains of Escherichia coli SC10909 and BAS847; conditions: agar plate diffusion; hyper-permeable E. coli SC10909 and BAS847
Proteus vulgaris = conditions: agar plate diffusion
Bacillus thuringiensis = conditions: agar plate diffusion
Staphylococcus aureus = conditions: agar plate diffusion
protein synthesis = conditions: prokaryotes versus eukaryotes
[3] = test system: species of Fusarium, Gerlacia, Penicillium, and Aspergillus

Compound: CC(=O)[O-].CC(=O)[O-].[Zn+2] [zinc acetate]
- HIV infectivity (HIV): reduced

Compound: C/C(=C/C=C/C=C/C(C)C(=O)O)NC(=O)CC(O)\C(C)=C/C=C\C=C(C)\C=C\C=C/C=C/CNC(=O)C(O)CC(C)C (centres unmarked) [bacillaene]
- inhibitory effect (Saccharomyces cerevisiae): ineffective
- inhibitory effect (Candida albicans): ineffective
- inhibitory effect [1]: ineffective
- inhibitory effect [2]: potent
- inhibitory effect (Proteus vulgaris): moderately potent
- inhibitory effect (Bacillus thuringiensis): moderately potent
- inhibitory effect (Staphylococcus aureus): moderately potent
- growth inhibition (Streptomyces avermitilis): inhibit the growth
- selectivity of protein synthesis inhibition (protein synthesis): inhibiting protein synthesis only in prokaryotes and not in eukaryotes

Compound: Iturin A
- growth inhibition [3]: inhibits the growth
